In patent publication US20220023289A1, “Application Of Pyrroloquinoline Quinone In Preparation Of Medicament Used For Preventing And Treating Acute Altitude Sickness And Acute Altitude Hypoxia Injury” (priority 2018, published 2022):

How the values were obtained:
Assay type in all cases: in vivo, Wistar rat
[1] = system: rats exposed to acute altitude hypoxia; assay: Blood glucose in rats exposed to acute altitude hypoxia (6000 m, 8 h, after 7 days intragastric)
Description: (§1) Select healthy Wistar rats weight 160-200 g, half female and half male. After feeding for 3 days, these Wistar rats are randomly divided into ten groups according to their body weight, each group has 16±2 rats. The groups are divided as follows: five groups of the hypoxic exposure drug test group, respectively, are given 0.91 mg/kg, 1.83 mg/kg, 3.66 mg/kg, 7.31 mg/kg, and 14.63 mg/kg drugs. […] After continuous intragastric administration for 7 days, the animals in the hypoxic exposure group are simultaneously put into the decompression and hypoxia compound experimental chamber, the hatch is closed, and the pressure is reduced at a speed of 10 m/s. After being raised to an altitude of 6000 m and maintained for 8 hours, the speed in 10 m/s drops is reduced to normal altitude, open the hatch, and then take out the animal, collect blood samples (after standing for 1 hour, the supernatant is centrifuged and stored at −20° C.), and liver tissue samples. Detection indicator includes body weight, serum blood glucose, ATP, lactic acid, endothelin, nitric oxide, SOD, CO, MDA related to oxidative stress, and total protein, albumin, triglycerides, total cholesterol, high-density lipoprotein cholesterol, low-density lipoprotein cholesterol, glutamic pyruvic transaminase, total bilirubin, gluamic oxalacetic transaminase, serum urea nitrogen, creatinine, uric acid, lactate dehydrogenase, creatine kinase, α-hydroxybutyrate dehydrogenase; liver ATP, hepatic glycogen. Except that the formal oxygen control animal group is not put into the decompression and hypoxia compound experimental chamber, other experimental conditions and detection indicators are the same.
(§2) Measure blood glucose, total protein, albumin, triglycerides, total cholesterol, high-density lipoprotein cholesterol, low-density lipoprotein cholesterol, glutamic-pyruvic transaminase, total bilirubin, glutamic oxalacetic transaminase, serum urea nitrogen, creatinine, uric acid, lactate dehydrogenase, creatine kinase, α-hydroxybutyrate dehydrogenase, blood homocysteine by using an automatic blood biochemical analyzer.

[2] = system: rats exposed to acute altitude hypoxia; assay: Lipid metabolism in rats exposed to acute altitude hypoxia
Description: as §1, §2

[3] = system: rats exposed to acute altitude hypoxia; assay: Liver function of rats exposed to acute altitude hypoxia
Description: as §1, §2

[4] = system: rats exposed to acute altitude hypoxia; assay: Endothelial function (serum endothelin-1, nitric oxide) in rats exposed to acute altitude hypoxia
From the text: This method uses nitrate reductase specificity reduce NO^3− to NO^2−, and then determine the level of its concentration by displaying shades of color. Operate according to the kit instructions, measure the absorbance of each tube at a wavelength of 550 nm, and then calculate the content of nitric oxide of the sample to be tested according to the formula. To the coated microwells pre-coated with rat endothelin (endothelin-1) capture antibody, add in sequence specimens, standards, and HRP-labeled detection antibody, and then incubate and wash thoroughly. Use a substrate TMB for color development. TMB is converted into blue under the catalysis of peroxidase and converted into the final yellow color under the action of acid. The color intensity is positively correlated with the rat endothelin (endothelin-1) in the sample.

[5] = female rats, hypoxia, 3.66 mg/kg
[6] = female rats, hypoxia, 7.31 mg/kg
[7] = female rats, hypoxia, 14.63 mg/kg
[8] = female rats, normoxia, 3.66 mg/kg
[9] = male rats, hypoxia, 14.63 mg/kg
[10] = female rats, hypoxia, 0.91 mg/kg
[11] = female rats, hypoxia, 1.83 mg/kg
[12] = female rats after acute hypoxia exposure

## O=C(O)c1cc(C(=O)O)c2c(n1)C(=O)C(=O)c1cc(C(=O)O)[nH]c1-2 [PQQ, pyrroloquinoline quinone]
[1]; [5]
  Blood sugar: 8.27 ± 0.37 mmol/L
[1]; [6]
  Blood sugar: 7.91 ± 0.65 mmol/L
[1]; [7]
  Blood sugar: 7.55 ± 0.48 mmol/L
[1]; female rats, normoxia
  effect on blood glucose: no significant effects
[1]; [8]
  Blood sugar: 8.13 ± 0.57 mmol/L
[1]; male rats
  effect on blood glucose level: no significant effects
[1]; male rats, hypoxia, 0.91 mg/kg
  Blood sugar: 7.35 ± 1.94 mmol/L
[1]; male rats, hypoxia, 1.83 mg/kg
  Blood sugar: 8.21 ± 1.46 mmol/L
[1]; male rats, hypoxia, 3.66 mg/kg
  Blood sugar: 8.97 ± 1.44 mmol/L
[1]; male rats, hypoxia, 7.31 mg/kg
  Blood sugar: 8.28 ± 1.57 mmol/L
[1]; [9]
  Blood sugar: 8.85 ± 2.04 mmol/L
[2]; [10]
  High density lipoprotein cholesterol: 1.30 ± 0.07 mmol/L
  Low density lipoprotein cholesterol: 0.12 ± 0.01 mmol/L
  Total cholesterol: 1.69 ± 0.11 mmol/L
[2]; [11]
  High density lipoprotein cholesterol: 1.18 ± 0.14 mmol/L
  Low density lipoprotein cholesterol: 0.10 ± 0.02 mmol/L
  Total cholesterol: 1.56 ± 0.17 mmol/L
[2]; [5]
  High density lipoprotein cholesterol: 1.14 ± 0.10 mmol/L
  Low density lipoprotein cholesterol: 0.10 ± 0.02 mmol/L
  Total cholesterol: 1.47 ± 0.11 mmol/L
[2]; [6]
  High density lipoprotein cholesterol: 1.27 ± 0.09 mmol/L
  Low density lipoprotein cholesterol: 0.10 ± 0.02 mmol/L
  Total cholesterol: 1.69 ± 0.09 mmol/L
[2]; [7]
  High density lipoprotein cholesterol: 1.28 ± 0.11 mmol/L
  Low density lipoprotein cholesterol: 0.11 ± 0.02 mmol/L
  Total cholesterol: 1.64 ± 0.13 mmol/L
[2]; female rats, normoxia
  effect on total cholesterol, low-density and high-density lipoprotein cholesterol: no significant effects
[2]; [8]
  High density lipoprotein cholesterol: 1.39 ± 0.10 mmol/L
  Low density lipoprotein cholesterol: 0.14 ± 0.03 mmol/L
  Total cholesterol: 1.87 ± 0.10 mmol/L
[2]; hypoxia exposed female rats
  effect on total cholesterol, low-density and high-density lipoprotein cholesterol: no significant effects
[2]; male rats exposed to hypoxia
  effect on triglycerides: is not found
[2]; male rats, hypoxia, 0.91 mg/kg
  High density lipoprotein cholesterol: 1.03 ± 0.09 mmol/L
  Low density lipoprotein cholesterol: 0.16 ± 0.03 mmol/L
  Total cholesterol: 1.47 ± 0.15 mmol/L
  Triglycerides: 1.25 ± 0.64 mmol/L
[2]; male rats, hypoxia, 1.83 mg/kg
  High density lipoprotein cholesterol: 1.23 ± 0.11 mmol/L
  Low density lipoprotein cholesterol: 0.20 ± 0.02 mmol/L
  Total cholesterol: 1.71 ± 0.90 mmol/L
  Triglycerides: 1.06 ± 0.35 mmol/L
[2]; male rats, hypoxia, 3.66 mg/kg
  High density lipoprotein cholesterol: 1.28 ± 0.09 mmol/L
  Low density lipoprotein cholesterol: 0.19 ± 0.04 mmol/L
  Total cholesterol: 1.80 ± 0.16 mmol/L
  Triglycerides: 1.36 ± 0.58 mmol/L
[2]; male rats, hypoxia, 7.31 mg/kg
  High density lipoprotein cholesterol: 1.23 ± 0.10 mmol/L
  Low density lipoprotein cholesterol: 0.16 ± 0.02 mmol/L
  Total cholesterol: 1.69 ± 0.10 mmol/L
  Triglycerides: 1.35 ± 0.36 mmol/L
[2]; [9]
  High density lipoprotein cholesterol: 1.44 ± 0.15 mmol/L
  Low density lipoprotein cholesterol: 0.19 ± 0.03 mmol/L
  Total cholesterol: 1.95 ± 0.15 mmol/L
  Triglycerides: 1.40 ± 0.74 mmol/L
[2]; male rats, low-dose
  effect on low density lipoprotein cholesterol: no significant effects
  effect on total cholesterol and high-density lipoprotein cholesterol: reducing the amount
[3]; acute hypoxia exposed female rats
  effect on serum glutamic-pyruvic transaminase and glutamic oxalacetic transaminase activities: has been not found
[3]; [10]
  Glutamic oxalacetic transaminase: 80.71 ± 12.49 U
  Glutamic-pyruvic transaminase: 29.86 ± 4.30 U
[3]; [11]
  Glutamic oxalacetic transaminase: 84.71 ± 18.97 U
  Glutamic-pyruvic transaminase: 27.86 ± 6.28 U
[3]; [5]
  Glutamic oxalacetic transaminase: 82.29 ± 17.75 U
  Glutamic-pyruvic transaminase: 32.57 ± 5.35 U
[3]; [6]
  Glutamic oxalacetic transaminase: 79.29 ± 16.06 U
  Glutamic-pyruvic transaminase: 32.57 ± 6.37 U
[3]; [7]
  Glutamic oxalacetic transaminase: 83.00 ± 20.18 U
  Glutamic-pyruvic transaminase: 36.57 ± 8.52 U
[3]; female rats, normoxia
  effect on aspartate aminotransferase activity: slightly increasing
  effect on glutamic-pyruvic transaminase: no significant effect
[3]; [8]
  Glutamic oxalacetic transaminase: 120.29 ± 11.90 U
  Glutamic-pyruvic transaminase: 37.14 ± 4.45 U
[3]; male rats exposed to acute hypoxia
  effect on serum glutamic-pyruvic transaminase, glutamic oxalacetic transaminase and total bilirubin: is not found
[3]; male rats, hypoxia, 0.91 mg/kg
  Glutamic oxalacetic transaminase: 79.17 ± 15.66 U
  Glutamic-pyruvic transaminase: 36.63 ± 8.30 U
  Total bilirubin: 0.51 ± 0.12 µmol/L
[3]; male rats, hypoxia, 1.83 mg/kg
  Glutamic oxalacetic transaminase: 85.80 ± 13.80 U
  Glutamic-pyruvic transaminase: 40.63 ± 5.18 U
  Total bilirubin: 0.59 ± 0.12 µmol/L
[3]; male rats, hypoxia, 3.66 mg/kg
  Glutamic oxalacetic transaminase: 99.00 ± 15.52 U
  Glutamic-pyruvic transaminase: 42.50 ± 4.93 U
  Total bilirubin: 0.60 ± 0.15 µmol/L
[3]; male rats, hypoxia, 7.31 mg/kg
  Glutamic oxalacetic transaminase: 94.40 ± 12.28 U
  Glutamic-pyruvic transaminase: 43.13 ± 8.92 U
  Total bilirubin: 0.46 ± 0.15 µmol/L
[3]; [9]
  Glutamic oxalacetic transaminase: 109.00 ± 11.68 U
  Glutamic-pyruvic transaminase: 48.25 ± 8.86 U
  Total bilirubin: 0.53 ± 0.15 µmol/L
[4]; [12]
  effect on nitric oxide: no significant effect
  effect on serum endothelin-1 content: can increase
[4]; [10]
  Endothelin-1: 64.75 ± 2.72 ng/mL
  Nitric oxide: 3.50 ± 1.24 µmol/L
[4]; [11]
  Endothelin-1: 63.21 ± 4.33 ng/mL
  Nitric oxide: 4.47 ± 1.35 µmol/L
[4]; [5]
  Endothelin-1: 68.58 ± 5.38 ng/mL
  Nitric oxide: 6.19 ± 2.06 µmol/L
[4]; [6]
  Endothelin-1: 65.44 ± 14.06 ng/mL
  Nitric oxide: 5.92 ± 2.31 µmol/L
[4]; [7]
  Endothelin-1: 65.26 ± 6.60 ng/mL
  Nitric oxide: 4.62 ± 3.25 µmol/L
[4]; female rats, normoxia
  effect on nitric oxide content: no significant effects
  effect on serum endothelin-1 content: can reduce
[4]; [8]
  Endothelin-1: 47.50 ± 7.31 ng/mL
  Nitric oxide: 5.01 ± 1.57 µmol/L
[4]; hypoxia exposed male rats
  effect on serum endothelin-1 and nitric oxide: no significant effects
[4]; male rats, hypoxia, 0.91 mg/kg
  Endothelin-1: 45.35 ± 4.24 ng/mL
  Nitric oxide: 5.28 ± 0.71 µmol/L
[4]; male rats, hypoxia, 1.83 mg/kg
  Endothelin-1: 42.59 ± 1.45 ng/mL
  Nitric oxide: 5.15 ± 2.11 µmol/L
[4]; male rats, hypoxia, 3.66 mg/kg
  Endothelin-1: 48.14 ± 3.13 ng/mL
  Nitric oxide: 5.35 ± 1.35 µmol/L
[4]; male rats, hypoxia, 7.31 mg/kg
  Endothelin-1: 43.60 ± 0.94 ng/mL
  Nitric oxide: 6.20 ± 2.49 µmol/L
[4]; [9]
  Endothelin-1: 42.45 ± 3.84 ng/mL
  Nitric oxide: 6.46 ± 1.44 µmol/L
